We go through five compounds from article PMC6010079, “Inhibition of dengue virus replication by novel inhibitors of RNA-dependent RNA polymerase and protease activities” (Journal of Enzyme Inhibition and Medicinal Chemistry, 2017).

Each structure is given as a SMILES string. Several values for one entry are separate records, joined by “and”; a condition that tells them apart may be missing. Equal values may be shown once. Read-outs that look alike come from different tables or passages of the source.

In data set [1] the target is T1, DENV-2 NS5 RdRp (Dengue virus type 2, UniProt P29990). Put plainly: Cell-based RdRp reporter assay (p(+)RLuc-(–)DV-UTRΔC-FLuc + pcDNA-NS5-Myc in Huh-7 cells). Conditions: 3 days treatment. Here is the method: (§1) The cell-based experiments were performed as previously described. Briefly, the Huh-7 cells were transfected with 0.5 µg of p(+)RLuc-(–)DV-UTRΔC-FLuc and DENV NS5 expression vector pcDNA-NS5-Myc followed by compound treatment for 3 days. The RLuc and FLuc activities were analysed by Dual-Glo Luciferase Assay System[37]. The enzyme-based fluorescence-based alkaline phosphatase-coupled polymerase assay (FAPA) was performed as previously described. Briefly, the template was amplified from the cDNA of DENV-2 minus strand 3′-UTR and its RNA was synthesised by the T7 Megascript kit[38]. The 100 nM DENV NS5 protein was incubated with 1, 5 or 10 µM test compound, 100 nM (−) 3′-UTR RNA, 20 µM CTP, GTP, UTP and 20 µM BBT-ATP (Jena Bioscience) in a total volume of 30 µL in assay buffer (50 mM Tris-HCl, pH 7.5, 10 mM KCl, 1 mM MgCl2, 0.3 mM MnCl2, 0.001% Triton X-100 and 10 µM cysteine) at 25 °C for 60 min. The 30 µL of 2.5× stop buffer (200 mM NaCl, 25 mM MgCl2, 1.5 M diethanolamine, pH 10) with 25 nM calf intestinal alkaline phosphatase (Promega) was added to the reaction after 60-min incubation. The fluorescence signal was measured at excitation wavelength of 422 nm and emission wavelength of 566 nm, respectively.

Data set [2] deals with T1, DENV-2 NS5 RdRp. Put plainly: Enzyme-based RdRp activity assay (FAPA). Also on record: the supernatant containing His-tagged DENV-2 NS5 protein; His; made in house; host or cells: Sf9 insect cells (baculovirus vAc-DENV-NS5). The following applies: 100 nM DENV NS5 protein, (−) 3′UTR RNA, BBT-ATP, 25 °C, 60 min. In kind it is biochemical. Here is the method:
The DENV-2 NS5 protein purification was performed as previously described. Briefly, Sf9 cells were infected by the recombinant baculovirus vAc-DENV-NS5 at an MOI of 10 for 3 days. The cells were pelleted by centrifugation at 1000×g for 5 min at 4 °C and washed twice with phosphate-buffered saline (PBS). The cells were suspended in 5 mL of binding buffer (20 mM sodium phosphate, pH 7.5, 300 mM NaCl, 20 mM imidazole) containing protease inhibitor cocktail, and then disrupted by sonication. After centrifugation, the supernatant containing His-tagged DENV-2 NS5 protein was subjected to metal affinity chromatography employing the AKTA prime protein purification system. The eluted DENV-2 NS5 protein was concentrated by an Amicon Ultra-15 30 k centrifugal filter device[36] and then dialysed against PBS overnight at 4 °C.
as §1

The test system of data set [3] is DENV-2. As to the kind of experiment: Anti-DENV RNA activity: RT-qPCR of DENV RNA in DENV-2-infected Huh-7 cells. It is filed as cell-based, DENV-2 (DENV type-2 strain 16681). Conditions: for SI (selectivity index, CC50/EC50 ratio): CC50 in Huh-7 / EC50 DENV-2 RNA. Here is the method:
Huh-7 cells were seeded in 24-well plate and infected DENV at an MOI of 0.2 for 2 h and followed by test compound treatment at concentration of 0, 1, 5, 10, 25, 50 and 100 µM for 3 days. The total cellular RNA was harvested by RNA extraction kit[32] following manufacturer’s instrument. DENV RNA and cellular mRNA levels were determined by quantitative real-time reverse-transcription polymerase chain reaction (RT-qPCR) with specific primers. The DENV RNA level was normalised by cellular glyceraldehydes-3-phosphate dehydrogenase (GAPDH) mRNA level. The relative DENV RNA level was calculated by StepOne™ Software v2.2.2 (Applied Biosystems, Foster City, CA, USA) following normalisation of cellular glyceraldehydes-3-phosphate dehydrogenase (GAPDH) mRNA level. The zero dose was defined as 100%. The EC50 values were calculated from non-linear regression curve fitting using GraphPad Prism7 software (San Diego, CA, USA). Results were obtained from three independent experiments.
(In general: Quantitative PCR measures a nucleic acid by following its amplification.)

Data set [4] in a line: Cell cytotoxicity assay (MTS). In kind it is cell-based. The following applies: human, Huh-7 cells, 3 days incubation, read-out: CC50 (half maximal cytotoxicity concentration). Here is the method:
The Huh-7 cells were seeded in 96-well and treated with test compound at concentration of 0, 10, 25, 50, 100, 150 and 200 µM. After 3 days incubation, the cell viability was determined by CellTiter 96 AQueous One Solution Cell Proliferation Assay (MTS assay) as previously reported. Briefly, the MTS assay buffer was added to the cultured plate following removal of the culture medium. After 2 h of incubation at 37 °C, the absorbance at 492 nm was measured. The cell viability was calculated from non-linear regression curve fitting using GraphPad Prism7. The zero dose was defined as 100%. Results were obtained from three independent experiments.

The test system of data set [5] is DENV-2. Put plainly: Anti-DENV activity in DENV-infected ICR-suckling mouse model. It is filed as in vivo. The following applies: 6-day-old ICR-suckling mice; for Clinical scores and body weight (DENV-induced pathology): 2.5 × 10^5 pfu DENV-2, within 4 to 6 dpi; for Survival rate: DENV-2, compared to untreated mice. An excerpt: Breeder ICR mice were purchased from BioLasco Taiwan Co. Ltd. The experimental protocol was approved by the Animal Research Committee of Kaohsiung Medical University of Taiwan (IACUC, protocol number 102177). All mice received humane care and fed with standard rodent chew and water ad libitum. Mice were kept under a standard laboratory condition following the Animal Use Protocol of Kaohsiung Medical University. The 6-day-old ICR-suckling mice were intracerebrally injected with DENV-2 followed by intracerebrally injecting saline or test compound at 1, 3, 5 days postinfection (dpi). […] The body weight, clinical scores and survival rate were recorded every day. The mice were sacrificed at 6 dpi.
To access the antiviral activity of compound 3 and 4in vivo, 6-day-old ICR-suckling mice were inoculated with 2.5 × 10^5 pfu of DENV-2 by intracerebral injection and then were administered with compound 3 (10 mg/kg) or 4 (1 mg/kg) by intracerebral injection at 1-, 3- and 5-day postinfection (dpi); inoculation of heat-inactivated DENV-2 (iDENV) served as a mock control.

The target in another data set is T2, DENV-2 NS3 protease (Dengue virus type 2, UniProt P29990).
T2 construct: DENV protease expression vector pcDNA-NS2B-GSG-NS3-Myc; expressed in transfected cells; host or cells: Huh-7
Put plainly: Cell-based DENV protease reporter assay (pEG(MITA)SEAP + pcDNA-NS2B-GSG-NS3-Myc in Huh-7 cells). The following applies: 3 days treatment, read-out: Cell-based EC50 ± SD (DENV-2 NS3 protease). Here is the method: (§2) For cell-based activity assay, the Huh-7 cells were cotransfected with 0.5 µg of pEG(MITA)SEAP reporter vector and DENV protease expression vector pcDNA-NS2B-GSG-NS3-Myc followed by compound treatment for 3 days. The SEAP activity was analysed by Phospha-Light SEAP Reporter Gene Assay System[40]. The enzyme-based experiment was performed as previously described. Briefly, the 7-amino-4-methylcoumarin (AMC) fluorophore-linked peptide substrate Boc-GRR-AMC[41] and purified DENV NS2B/NS3pro protein were used to analyse DENV NS2B/NS3 protease activity. The 100 nM DENV NS2B/NS3pro protein was incubated with 1, 5 or 10 µM tested compound and 10 µM Boc-GRR-AMC in cleavage buffer (200 mM Tris [pH 9.5], 20% glycerol) for 30 min at 25 °C. The fluorescence signal was detected at excitation wavelength of 380 nm and emission wavelength of 465 nm, respectively.

In a further data set the target is T3, DENV NS2B/NS3pro protein (Dengue virus type 2, UniProt P29990).
T3 construct: made in house; host or cells: Escherichia coli BL21 (DE3)
Put plainly: Enzyme-based DENV NS2B/NS3 protease assay (Boc-GRR-AMC substrate). Conditions: Enzyme-based EC50 ± SD (DENV-2 NS3 protease), 100 nM NS2B/NS3pro, 10 µM Boc-GRR-AMC, 30 min, 25 °C. It is filed as biochemical. Here is the method:
The DENV NS2B/NS3pro purification was performed as previously described. Briefly, the pET24b-NS2B-NS3pro plasmid was transformed into competent Escherichia coli BL21 (DE3) and grew in kanamycin (50 µg/mL)-containing LB at 26 °C until OD600 nm reached 0.6. The isopropyl-β-D-thiogalactopyranose was added into the bacterial culture at 0.5 mM for protein induction. After 12-h incubation, cells were collected and subjected to protein purification following previous description.
as §2

Where [6] appears, read: Dengue virus, DENV2, Huh-7, 72 h, Huh-7 cells infected with DENV-2 at MOI 0.2, 3 days treatment, qRT-PCR with primers targeting NS5, normalised to GAPDH, read-out: EC50 ± SD (DENV-2 RNA).
[7] abbreviates: Huh-7 cells infected with DENV-2 at MOI 0.2, 3 days treatment, qRT-PCR with primers targeting NS5, normalised to GAPDH, read-out: EC50 ± SD (DENV-2 RNA).
Setting [8] is: 10 mg/kg intracerebral injection at 1, 3, 5 dpi.
The mark [9] stands for this setting: Cell-based EC50 ± SD (DENV-2 NS5 RdRp).
[10] abbreviates: read-out: Enzyme-based EC50 ± SD (DENV-2 NS5 RdRp).
The mark [11] stands for this setting: read-out: EC50 ± SD (DENV-2 RNA), Huh-7 cells infected with DENV-2 at MOI 0.2, 3 days treatment, qRT-PCR with primers targeting NS5, normalised to GAPDH.
Setting [12] is: Dengue virus, DENV2, Huh-7, 72 h, read-out: EC50 ± SD (DENV-2 RNA), Huh-7 cells infected with DENV-2 at MOI 0.2, 3 days treatment, qRT-PCR with primers targeting NS5, normalised to GAPDH.
The mark [13] stands for this setting: 1 mg/kg intracerebral injection at 1, 3, 5 dpi.

T2 sequence (P29990 1476-2093): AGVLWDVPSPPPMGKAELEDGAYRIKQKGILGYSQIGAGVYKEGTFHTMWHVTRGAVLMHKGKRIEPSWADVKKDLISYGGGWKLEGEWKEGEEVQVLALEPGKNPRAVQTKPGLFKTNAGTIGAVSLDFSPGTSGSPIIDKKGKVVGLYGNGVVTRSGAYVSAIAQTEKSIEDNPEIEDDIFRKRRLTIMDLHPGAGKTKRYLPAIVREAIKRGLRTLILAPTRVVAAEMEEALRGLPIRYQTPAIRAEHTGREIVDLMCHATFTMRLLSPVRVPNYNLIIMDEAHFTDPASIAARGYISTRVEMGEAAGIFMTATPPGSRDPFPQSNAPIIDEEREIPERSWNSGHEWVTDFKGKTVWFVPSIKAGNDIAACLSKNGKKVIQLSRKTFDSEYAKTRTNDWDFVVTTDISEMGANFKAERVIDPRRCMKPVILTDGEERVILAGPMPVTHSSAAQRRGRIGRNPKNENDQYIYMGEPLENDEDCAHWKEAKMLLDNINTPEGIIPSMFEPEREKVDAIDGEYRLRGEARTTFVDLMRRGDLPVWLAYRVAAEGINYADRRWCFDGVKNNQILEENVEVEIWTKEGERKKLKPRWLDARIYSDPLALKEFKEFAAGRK
T1 sequence (P29990 2492-3391): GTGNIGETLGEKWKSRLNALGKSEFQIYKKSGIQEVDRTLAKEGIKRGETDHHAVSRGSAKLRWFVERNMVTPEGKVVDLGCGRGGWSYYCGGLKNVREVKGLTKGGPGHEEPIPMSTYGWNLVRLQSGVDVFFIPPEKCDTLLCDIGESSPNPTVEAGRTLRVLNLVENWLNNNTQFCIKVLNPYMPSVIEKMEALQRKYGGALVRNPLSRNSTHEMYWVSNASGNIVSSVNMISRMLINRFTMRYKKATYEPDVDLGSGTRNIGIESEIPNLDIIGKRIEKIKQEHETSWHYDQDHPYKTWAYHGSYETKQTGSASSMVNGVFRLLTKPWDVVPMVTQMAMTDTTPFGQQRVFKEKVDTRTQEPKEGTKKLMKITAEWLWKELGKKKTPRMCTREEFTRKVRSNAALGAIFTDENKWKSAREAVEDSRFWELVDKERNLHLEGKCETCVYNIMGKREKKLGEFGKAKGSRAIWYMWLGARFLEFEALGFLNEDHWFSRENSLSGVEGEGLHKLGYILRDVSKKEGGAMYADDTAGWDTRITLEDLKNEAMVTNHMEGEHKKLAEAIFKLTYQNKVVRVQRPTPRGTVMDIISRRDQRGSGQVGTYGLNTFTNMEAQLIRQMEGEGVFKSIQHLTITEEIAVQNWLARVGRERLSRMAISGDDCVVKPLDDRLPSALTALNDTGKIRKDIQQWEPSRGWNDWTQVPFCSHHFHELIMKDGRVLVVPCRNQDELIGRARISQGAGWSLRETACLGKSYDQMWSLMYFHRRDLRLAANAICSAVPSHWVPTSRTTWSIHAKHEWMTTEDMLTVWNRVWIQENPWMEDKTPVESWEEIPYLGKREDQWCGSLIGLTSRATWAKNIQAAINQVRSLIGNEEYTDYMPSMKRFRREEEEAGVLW
T3 sequence (P29990 1346-1475): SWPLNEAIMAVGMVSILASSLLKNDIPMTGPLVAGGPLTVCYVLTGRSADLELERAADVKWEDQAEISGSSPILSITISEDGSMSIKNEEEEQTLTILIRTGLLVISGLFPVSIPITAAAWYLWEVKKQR
T3 sequence (P29990 1476-1653): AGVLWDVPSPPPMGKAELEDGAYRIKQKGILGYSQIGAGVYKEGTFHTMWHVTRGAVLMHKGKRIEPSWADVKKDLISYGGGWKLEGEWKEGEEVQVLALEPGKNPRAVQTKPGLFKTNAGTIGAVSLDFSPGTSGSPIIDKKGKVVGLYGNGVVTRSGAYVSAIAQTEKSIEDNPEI

For `CCOC(=O)c1cnn(-c2ccccc2)c1N(S(=O)(=O)c1ccc([N+](=O)[O-])cc1)S(=O)(=O)c1ccc([N+](=O)[O-])cc1` [Compound 3, Ethyl 5–(4-nitro-N-((4-nitrophenyl)sulphonyl)phenylsulphonamido)-1-phenyl-1H-pyrazole-4-carboxylate], the concentration giving a half-maximal response (EC50) at DENV-2 NS5 RdRp [1] (read-out: Cell-based EC50 ± SD (DENV-2 NS5 RdRp)) was 5.99 µM and 6 µM; at DENV-2 NS5 RdRp [2] (Enzyme-based EC50 ± SD (DENV-2 NS5 RdRp)) it was 4.87 µM and 4.9 µM; with DENV-2 [3] (setting [6]), 5.66 ± 0.25 µM; in the data set with DENV-2 [3] (setting [7]) it was 5.7 ± 0.3 µM. Moreover, the “SI (selectivity index, CC50/EC50 ratio)” value in the data set with DENV-2 [3] is on record as greater than 35.1. In addition, the CC50 at 3 days in data set [4] is greater than 200 µM. Moreover, the “Clinical scores and body weight (DENV-induced pathology)” value with DENV-2 [5] (setting [8]) is on record as “reduced DENV-induced pathology”. The Survival rate entry in the data set with DENV-2 [5] (setting [8]) is “significantly protected the mice”.
In the case of `CCOC(=O)c1cnn(C)c1NS(=O)(=O)c1ccc(-n2cccc2C(=O)c2ccccc2)cc1` [Compound 2, Ethyl 5–(4-(2-benzoyl-1H-pyrrol-1-yl)phenylsulphonamido)-1-methyl-1H-pyrazole-4-carboxylate], the 50% effective concentration (EC50) at DENV-2 NS5 RdRp [1] (setting [9]) was 7.22 µM and 7.2 µM; on DENV-2 NS5 RdRp [2] (setting [10]) it was 5.34 µM and 5.3 µM; with DENV-2 [3] (setting [6]) it was 7.61 ± 0.36 µM; in the data set with DENV-2 [3] (setting [7]) it was 7.6 ± 0.4 µM. For the same compound, in the data set with DENV-2 [3], the “SI (selectivity index, CC50/EC50 ratio)” value is greater than 26.3. In addition, the CC50 at 3 days in data set [4] was greater than 200 µM.
On to `CCOC(=O)c1cnn(C)c1N(S(=O)(=O)c1ccc(Cl)cc1)S(=O)(=O)c1ccc(Cl)cc1` [Compound 1, Ethyl 5–(4-chloro-N-((4-chlorophenyl)sulphonyl)phenylsulphonamido)-1-methyl-1H-pyrazole-4-carboxylate], for which the EC50 at DENV-2 NS5 RdRp [1] (setting [9]) was 8.07 µM and 8.1 µM; on DENV-2 NS5 RdRp [2] (setting [10]) it was 7.78 µM and 7.8 µM; with DENV-2 [3] (setting [6]), 11.1 ± 0.21 µM; in the data set with DENV-2 [3] (setting [11]) it was 11.7 ± 0.2 µM. For the same compound, the “SI (selectivity index, CC50/EC50 ratio)” value with DENV-2 [3] stood at 17.7. Besides, the CC50 at 3 days in data set [4] was found to be 196 µM.
For the compound `COC(=O)c1[nH]c2ccc(Cl)cc2c1C(=O)c1cc(OC)c(O)c(OC)c1` [Compound 4, Methyl 5-chloro-3–(4-hydroxy-3,5-dimethoxybenzoyl)-1H-indole-2-carboxylate], the “SI (selectivity index, CC50/EC50 ratio)” value with DENV-2 [3] came to 39.3. The EC50 was 4.6 ± 0.3 µM with DENV-2 [3] (setting [12]); 6.71 µM and 6.7 µM on DENV-2 NS3 protease; 4.72 µM and 4.7 µM on DENV NS2B/NS3pro protein. In data set [4], the CC50 at 3 days came to 181 µM. The “Clinical scores and body weight (DENV-induced pathology)” value in the data set with DENV-2 [5] (setting [13]) was “reduced DENV-induced pathology”. The Survival rate entry with DENV-2 [5] (setting [13]) is on record as “significantly protected the mice”.
In the case of `COC(=O)c1[nH]c2ccc(Cl)cc2c1Cc1cc(OC)cc(OC)c1` [Compound 5, Methyl 5-chloro-3–(3,5-dimethoxybenzyl)-1H-indole-2-carboxylate], in the data set with DENV-2 [3], the “SI (selectivity index, CC50/EC50 ratio)” value is greater than 27.4. The EC50 in the data set with DENV-2 [3] (setting [12]) was 7.28 ± 0.13 µM; in the data set with DENV-2 [3] (setting [11]), 7.3 ± 0.3 µM; at DENV-2 NS3 protease, 7.92 µM and 7.9 µM. In addition, in data set [4], the CC50 at 3 days was greater than 200 µM.

For orientation: EC50 means the concentration that produces a half-maximal response.
